Source: US11541132B2, “Radiolabeled compounds” (Hoffmann-La Roche Inc., priority 2017, dated 2023)
Like-named read-outs stand apart in the source and are kept apart here.

Experiments:
[1] = biological target: T1, native aSyn aggregates in A30P transgenic mouse brain sections (Homo sapiens, UniProt P37840, A30P); test: aSyn in vitro displacement assay ([3H]Example-3 autoradiography); type: binding, mutant human aSyn gene); details: for inhibition at 1 µM: read-out: PCT_INHIB A30P @ 1 μM (% displacement of [3H]Example-3)
T1 construct: from tissue; host or cells: brain sections (midbrain and pons as ROI) of A30P transgenic mice, line B6.D2-Tg(Thy1-SNCA*30P)31Pjk

[2] = biological target: T2, native Aβ aggregates in human AD brain tissue sections (Homo sapiens, UniProt P05067); test: Aβ in vitro displacement assay (selectivity counterscreen, [3H]Example 3 autoradiography); type: binding; details: for inhibition at 1 µM: read-out: sel. counterscreen PCT_INHIB AD @ 1 μM (% displacement of [3H]Example 3)
T2 construct: native Aβ aggregates in human AD brain tissue samples; from tissue; host or cells: human AD brain tissue sections

[3] = 1 μM compound, 3 nM [3H]Example-3, A30P transgenic mouse brain sections
[4] = 1 μM compound, 3 nM [3H]Example 3, human AD brain sections

T2 sequence (P05067 672-713 limits assumed): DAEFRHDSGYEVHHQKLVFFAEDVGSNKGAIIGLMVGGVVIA

| SMILES | inhibition at 1 µM [1, 3] | inhibition at 1 µM [2, 4] | also measured |
| --- | --- | --- | --- |
| CC(C)(C)[Si](C)(C)OC(CF)COc1ccc(C(=O)Nc2ccc(N3CCN(c4ccccn4)CC3)cc2)cc1 (racemic) [Example 124, rac-4-(2-((tert-Butyldimethylsilyl)oxy)-3-fluoropropoxy)-N-(4-(4-(pyridin-2-yl)piperazin-1-yl)phenyl)benzamide] | – | – | inhibition at 1 µM [1]: 82%; inhibition at 1 µM [2]: 91% |
| O=C(Nc1ccc(N2CCN(c3ccccn3)CC2)cc1)c1ccc(OCC(O)CF)cc1 (racemic) [Example 125, rac-4-(3-Fluoro-2-hydroxypropoxy)-N-(4-(4-(pyridin-2-yl)piperazin-1-yl)phenyl)benzamide] | 82% | 92% | – |
| CC(C)(C)[Si](C)(C)OC(CF)COc1ccc(C(=O)Nc2ccc(N3CCN(c4nccs4)CC3)cc2)cc1 (racemic) [Example 126, rac-4-(2-((tert-Butyldimethylsilyl)oxy)-3-fluoropropoxy)-N-(4-(4-(thiazol-2-yl)piperazin-1-yl)phenyl)benzamide] | – | – | inhibition at 1 µM [1]: 82%; inhibition at 1 µM [2]: 89% |
| CC(C)(C)[Si](C)(C)OC(CF)COc1ccc(C(=O)Nc2ccc(N3CCN(c4ccc(C#N)cc4)CC3)cc2)cc1 (racemic) [Example 127, rac-4-(2-((tert-Butyldimethylsilyl)oxy)-3-fluoropropoxy)-N-(4-(4-(4-cyanophenyl)piperazin-1-yl)phenyl)benzamide] | – | – | inhibition at 1 µM [1]: 81%; inhibition at 1 µM [2]: 78% |
| CC(C)(C)[Si](C)(C)OC(CF)COc1ccc(C(=O)Nc2ccc(N3CCN(c4cc(C#N)ccn4)CC3)cc2)cc1 (racemic) [Example 128, rac-4-(2-((tert-Butyldimethylsilyl)oxy)-3-fluoropropoxy)-N-(4-(4-(4-cyanopyridin-2-yl)piperazin-1-yl)phenyl)benzamide] | – | – | inhibition at 1 µM [1]: 92%; inhibition at 1 µM [2]: 98% |
| N#Cc1ccc(N2CCN(c3ccc(NC(=O)c4ccc(OCC(O)CF)cc4)cc3)CC2)nc1 (racemic) [Example 129, rac-N-(4-(4-(5-Cyanopyridin-2-yl)piperazin-1-yl)phenyl)-4-(3-fluoro-2-hydroxypropoxy)benzamide] | 86% | 94% | – |
| O=C(Nc1ccc(N2CCN(c3nccs3)CC2)cc1)c1ccc(OCC(O)CF)cc1 (racemic) [Example 130, rac-4-(3-Fluoro-2-hydroxypropoxy)-N-(4-(4-(thiazol-2-yl)piperazin-1-yl)phenyl)benzamide] | 81% | 87% | – |
| N#Cc1ccc(N2CCN(c3ccc(NC(=O)c4ccc(OCC(O)CF)cc4)cc3)CC2)cc1 (racemic) [Example 131, rac-N-(4-(4-(4-Cyanophenyl)piperazin-1-yl)phenyl)-4-(3-fluoro-2-hydroxypropoxy)benzamide] | 88% | 90% | – |
| COc1ccc(C(=O)Nc2ccc(N3CCN(c4ccccn4)CC3)cc2)c(F)c1 [Example 1, 2-Fluoro-4-methoxy-N-(4-(4-(pyridin-2-yl)piperazin-1-yl)phenyl)benzamide] | 100% | 95% | – |
| O=C(Nc1ccc(N2CCN(c3ccccn3)CC2)cc1)c1ccc(O)cc1 [Example 2, 4-hydroxy-N-(4-(4-(pyridin-2-yl)piperazin-1-yl)phenyl)benzamide] | 85% | 93% | – |
| COc1ccc(C(=O)Nc2ccc(N3CCN(c4ccccn4)CC3)cc2)cc1 [Example 3, 4-Methoxy-N-[4-(4-pyridin-2-ylpiperazin-1-yl)phenyl]benzamide] | – | – | inhibition at 3 µM ([1]; 3 μM compound, 3 nM [3H]Example-3, A30P transgenic mouse brain sections, read-out: PCT_INHIB A30P @ 3 μM): 100%; inhibition at 3 µM ([2]; 3 μM compound, 3 nM [3H]Example 3, human AD brain sections, read-out: sel. counterscreen PCT_INHIB AD @ 3 μM): 100% |
| COc1ccc(C(=O)Nc2ccc(N3CCN(c4ccc(C)cn4)CC3)cc2)cn1 [Example 4, 6-Methoxy-N-[4-[4-(5-methyl-2-pyridyl)piperazin-1-yl]phenyl]pyridine-3-carboxamide] | 89% | 91% | – |
| Cc1ccc(C(=O)Nc2ccc(N3CCN(c4ccccn4)CC3)cc2)cc1 [Example 5, 4-Methyl-N-(4-(4-(pyridin-2-yl)piperazin-1-yl)phenyl)benzamide] | 99% | 102% | – |
| CN1CCN(c2ccc(C(=O)Nc3ccc(N4CCN(c5ccccn5)CC4)cc3)cc2)CC1 [Example 6, 4-(4-Methylpiperazin-1-yl)-N-(4-(4-(pyridin-2-yl)piperazin-1-yl)phenyl)benzamide] | 83% | 95% | – |
| CN(C)c1ccc(C(=O)Nc2ccc(N3CCN(c4ccccn4)CC3)cc2)cc1 [Example 7, 4-(Dimethylamino)-N-(4-(4-(pyridin-2-yl)piperazin-1-yl)phenyl)benzamide] | 90% | 108% | – |
| O=C(Nc1ccc(N2CCN(c3ccccn3)CC2)cc1)c1ccc(N2CCOCC2)cc1 [Example 8, 4-Morpholino-N-(4-(4-(pyridin-2-yl)piperazin-1-yl)phenyl)benzamide] | 93% | 86% | – |
| O=C(Nc1ccc(N2CCN(c3ccccn3)CC2)cc1)c1ccccc1F [Example 9, 2-Fluoro-N-(4-(4-(pyridin-2-yl)piperazin-1-yl)phenyl)benzamide] | 82% | 96% | – |
| Cc1ccc(C(=O)Nc2ccc(N3CCN(c4ccccn4)CC3)cc2)c(F)c1 [Example 10, 2-Fluoro-4-methyl-N-(4-(4-(pyridin-2-yl)piperazin-1-yl)phenyl)benzamide] | 83% | 81% | – |
| COc1ccc(C(=O)Nc2ccc(N3CCN(c4ccccn4)CC3)nc2)c(C)c1 [Example 19, 4-Methoxy-2-methyl-N-[6-[4-(2-pyridyl)piperazin-1-yl]-3-pyridyl]benzamide] | 81% | – | – |
| CN1CCN(c2ccc(C(=O)Nc3ccc(N4CCN(c5ccccn5)CC4)nc3)cc2)CC1 [Example 22, 4-(4-Methylpiperazin-1-yl)-N-[6-[4-(2-pyridyl)piperazin-1-yl]-3-pyridyl]benzamide] | 84% | – | – |
| Cc1ccc(C(=O)Nc2ccc(N3CCN(c4ccccn4)CC3)nc2)c(F)c1 [Example 23, 2-Fluoro-4-methyl-N-[6-[4-(2-pyridyl)piperazin-1-yl]-3-pyridyl]benzamide] | 82% | – | – |
| COc1ccc(C(=O)Nc2ccc(N3CCN(c4ccccn4)CC3)nc2)cc1 [Example 24, 4-Methoxy-N-[6-[4-(2-pyridyl)piperazin-1-yl]-3-pyridyl]benzamide] | 94% | – | – |
| Cc1ccc(C(=O)Nc2ccc(N3CCN(c4nccs4)CC3)cc2)nc1 [Example 25, 5-Methyl-N-[4-[4-(1,3-thiazol-2-yl)piperazin-1-yl]phenyl]pyridine-2-carboxamide] | 83% | – | – |
| O=C(Nc1ccc(N2CCN(c3nccs3)CC2)cc1)c1ccc(N2CCOCC2)cc1 [Example 26, 4-Morpholin-4-yl-N-[4-[4-(1,3-thiazol-2-yl)piperazin-1-yl]phenyl]benzamide] | 93% | – | – |
| Cc1ccc(C(=O)Nc2ccc(N3CCN(c4nccs4)CC3)cc2)cc1 [Example 27, 4-Methyl-N-[4-[4-(1,3-thiazol-2-yl)piperazin-1-yl]phenyl]benzamide] | 89% | – | – |
| CN1CCN(c2ccc(C(=O)Nc3ccc(N4CCN(c5nccs5)CC4)cc3)cc2)CC1 [Example 28, 4-(4-Methylpiperazin-1-yl)-N-[4-[4-(1,3-thiazol-2-yl)piperazin-1-yl]phenyl]benzamide] | 82% | – | – |
